{
  "source": "patent US12404283B2",
  "about": "“c-MYC mRNA translation modulators and uses thereof in the treatment of cancer” (Anima Biotech Inc., priority 2022, dated 2025)",
  "note": "Where a name gives a salt, the structure may show the parent alone.",
  "data": [
    {"test_system": "c-Myc", "assay": "c-Myc immunofluorescence assay", "format": "cell-based, human", "details": "A549 cells, 24 hours treatment, anti-c-Myc immunofluorescence", "method_in_brief": "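High-content imaging (20×) of PFA-fixed A549 cells immunostained for c-Myc with DAPI nuclei, after 24 h compound treatment at increasing concentrations. Per-cell c-Myc signal in identified cell regions was plotted against dose and fitted by logistic regression to give EC50.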", "values": [
      {"smiles": "Cc1cc(-c2cn3c(n2)sc2cc(C(=O)NCCCN4CCCCC4)ccc23)ccc1CN", "note": "[compound 381, 2-(4-(aminomethyl)-3-methylphenyl)-N-(3-(piperidin-1-yl)propyl)benzo[d]imidazo [2,1-b]thiazole-7-carboxamide]", "Myc Efficacy (−LogEC50)": "+++ (+++ ≥6)"},
      {"smiles": "Cc1ccc(-c2cn3c(n2)sc2cc(C(=O)NC[C@@H]4CCNC4)ccc23)cc1", "note": "[compound 116, (R)-N-(pyrrolidin-3-ylmethyl)-2-(p-tolyl)benzo[d]imidazo [2,1-b]thiazole-7-carboxamide formate]", "Myc Efficacy (−LogEC50)": "++ (++ ≥5 and <6)"},
      {"smiles": "O=C(NCCCN1CCC(F)CC1)c1ccc2c(c1)sc1nc(-c3ccc([C@H]4CCNC4)cc3F)cn12", "note": "[Compound 434R, (R)-2-(2-fluoro-4-(pyrrolidin-3-yl)phenyl)-N-(3-(4-fluoropiperidin-1-yl)propyl)benzo[d]imidazo[2,1-b]thiazole-7-carboxamide]", "Myc Efficacy (−LogEC50)": "+++ (+++ ≥6)"},
      {"smiles": "O=C(NCCCN1CCCCC1)c1ccc2c(c1)sc1nc(-c3ccncc3)cn12", "note": "[compound 306, N-(3-(piperidin-1-yl)propyl)-2-(pyridin-4-yl)benzo[d]imidazo[2,1-b]thiazole-7-carboxamide]", "Myc Efficacy (−LogEC50)": "++ (++ ≥5 and <6)"},
      {"smiles": "CNC(=O)c1ccc(-c2cn3c(n2)sc2cc(C(=O)NCC(C)OC)ccc23)cc1", "note": "(stereo not drawn) [compound 203, N-(2-methoxypropyl)-2-(4-(methylcarbamoyl)phenyl) benzo[d]imidazo[2,1-b]thiazole-7-carboxamide]", "Myc Efficacy (−LogEC50)": "+ (+ >3 and <5)"},
      {"smiles": "CCN1CCC[C@H]1CNC(=O)c1ccc2c(c1)sc1nc(-c3cccc(OC)c3)cn12", "note": "[compound 119, (S)-N-((1-ethylpyrrolidin-2-yl)methyl)-2-(3-methoxyphenyl)benzo[d] imidazo[2,1-b]thiazole-7-carboxamide]", "Myc Efficacy (−LogEC50)": "++ (++ ≥5 and <6)"},
      {"smiles": "Cc1ccc(-c2cn3c(n2)sc2cc(C(=O)NCC4CNC4)ccc23)cc1", "note": "[compound 117, N-(azetidin-3-ylmethyl)-2-(p-tolyl)benzo[d]imidazo [2,1-b]thiazole-7-carboxamide]", "Myc Efficacy (−LogEC50)": "+ (+ >3 and <5)"},
      {"smiles": "CCCN1CCC(NC(=O)c2ccc3c(c2)sc2nc(-c4ccc(C(=O)NC)cc4)cn23)CC1", "note": "[compound 264, 2-(4-(methylcarbamoyl)phenyl)-N-(1-propylpiperidin-4-yl)benzo[d]imidazo[2,1-b]thiazole-7-carboxamide]", "Myc Efficacy (−LogEC50)": "+++ (+++ ≥6)"},
      {"smiles": "CNC(=O)c1ccc(-c2cn3c(n2)sc2cc(C(=O)NC4CN(C)C4)ccc23)cc1", "note": "[compound 198, N-(1-methylazetidin-3-yl)-2-(4-(methylcarbamoyl)phenyl) benzo[d]imidazo[2,1-b]thiazole-7-carboxamide]", "Myc Efficacy (−LogEC50)": "+ (+ >3 and <5)"},
      {"smiles": "CCN1CCC[C@@H]1CNC(=O)c1ccc2c(c1)sc1nc(-c3ccc(C(=O)NC)cc3)cn12", "note": "[compound 214, (R)-N-((1-ethylpyrrolidin-2-yl)methyl)-2-(4-(methylcarbamoyl)phenyl) benzo[d]imidazo[2,1-b]thiazole-7-carboxamide]", "Myc Efficacy (−LogEC50)": "+ (+ >3 and <5)"},
      {"smiles": "CCN(CC)CCCNC(=O)c1ccc2c(c1)sc1nc(-c3cccc(-c4ccccc4)c3)cn12", "note": "[compound 153, 2-([1,1′-biphenyl]-3-yl)-N-(3-(diethylamino)propyl)benzo [d]imidazo[2,1-b]thiazole-7-carboxamide]", "Myc Efficacy (−LogEC50)": "+ (+ >3 and <5)"},
      {"smiles": "CNC(=O)c1ccc(-c2cn3c(n2)sc2cc(C(=O)NCCCN4CCNCC4)ccc23)cc1", "note": "[compound 175, 2-(4-(methylcarbamoyl)phenyl)-N-(3-(piperazin-1-yl)propyl)benzo[d]imidazo [2,1-b]thiazole-7-carboxamide]", "Myc Efficacy (−LogEC50)": "− (− ≤3)"},
      {"smiles": "CC(=O)Nc1ccc2c(c1)sc1nc(-c3ccc(C4CCCN4)cc3F)cn12", "note": "(stereo not drawn) [Compound 548, N-(2-(2-fluoro-4-(pyrrolidin-2-yl)phenyl)benzo[d]imidazo[2,1-b]thiazol-7-yl)acetamide]", "Myc Efficacy (−LogEC50)": "+++ (+++ ≥6)"},
      {"smiles": "CNC(=O)c1ccc(-c2cn3c(n2)sc2cc(C(=O)NCCCN4CCCCC4)ccc23)c(F)c1", "note": "[compound 281, 2-(2-fluoro-4-(methylcarbamoyl)phenyl)-N-(3-(piperidin-1-yl)propyl)benzo[d]imidazo [2,1-b]thiazole-7-carboxamide]", "Myc Efficacy (−LogEC50)": "++ (++ ≥5 and <6)"},
      {"smiles": "CCN(CC)CCCNC(=O)c1ccc2c(c1)sc1nc(-c3ccc([C@@H]4CCCN4)cc3)cn12", "note": "[compound 415, (S)-N-(3-(diethylamino)propyl)-2-(4-(pyrrolidin-2-yl)phenyl)benzo[d]imidazo [2,1-b]thiazole-7-carboxamide]", "Myc Efficacy (−LogEC50)": "+++ (+++ ≥6)"},
      {"smiles": "NC(CO)c1ccc(-c2cn3c(n2)sc2cc(C(=O)NCCCN4CCC(F)CC4)ccc23)c(F)c1", "note": "(stereo not drawn) [Compound 539, 2-(4-(1-amino-2-hydroxyethyl)-2-fluorophenyl)-N-(3-(4-fluoropiperidin-1-yl)propyl)benzo[d]imidazo[2,1-b]thiazole-7-carboxamide]", "Myc Efficacy (−LogEC50)": "+++ (+++ ≥6)"},
      {"smiles": "O=C(NC1CCOCC1)c1ccc2c(c1)sc1nc(-c3ccc(C4COCCN4)cc3F)cn12", "note": "(stereo not drawn) [Compound 534, 2-(2-fluoro-4-(morpholin-3-yl)phenyl)-N-(tetrahydro-2H-pyran-4-yl)benzo[d]imidazo[2,1-b]thiazole-7-carboxamide]", "Myc Efficacy (−LogEC50)": "+++ (+++ ≥6)"},
      {"smiles": "CNC(=O)c1ccc(-c2cn3c(n2)sc2cc(C(=O)N[C@@H](C)COC)ccc23)cc1", "note": "[compound 186, (S)-N-(1-methoxypropan-2-(methylcarbamoyl)phenyl) benzo[d]imidazo[2,1-b]thiazole-7-carboxamide]", "Myc Efficacy (−LogEC50)": "+ (+ >3 and <5)"},
      {"smiles": "Cc1cccc(-c2cn3c(n2)sc2cc(C(=O)NCCCN4CCS(=O)(=O)CC4)ccc23)c1", "note": "[compound 135, N-(3-(1,1-dioxidothiomorpholino)propyl)-2-(m-tolyl)benzo[d]imidazo[2,1-b]thiazole-7-carboxamide]", "Myc Efficacy (−LogEC50)": "+ (+ >3 and <5)"},
      {"smiles": "CNC(=O)c1ccc2c(c1)sc1nc(-c3ccc(C4CCCN4)cc3F)cn12", "note": "(stereo not drawn) [Compound 498, 2-(2-fluoro-4-(pyrrolidin-2-yl)phenyl)-N-methylbenzo[d]imidazo[2,1-b]thiazole-7-carboxamide]", "Myc Efficacy (−LogEC50)": "+++ (+++ ≥6)"},
      {"smiles": "O=C(NC1CCOCC1)c1ccc2c(c1)sc1nc(-c3ccc([C@H]4C[C@H](O)CN4)cc3F)cn12", "note": "(relative stereo) [Compound 538, 2-(2-fluoro-4-((trans)-4-hydroxypyrrolidin-2-yl)phenyl)-N-(tetrahydro-2H-pyran-4-yl)benzo[d]imidazo[2,1-b]thiazole-7-carboxamide]", "Myc Efficacy (−LogEC50)": "+++ (+++ ≥6)"},
      {"smiles": "O=C(NCCCN1CCC(F)CC1)c1cc2sc3nc(-c4ccc(C5CCCN5)cc4F)cn3c2cn1", "note": "(stereo not drawn) [Compound 501, 2-(2-fluoro-4-(pyrrolidin-2-yl)phenyl)-N-(3-(4-fluoropiperidin-1-yl)propyl)imidazo[2′,1′:2,3]thiazolo[4,5-c]pyridine-7-carboxamide]", "Myc Efficacy (−LogEC50)": "+++ (+++ ≥6)"},
      {"smiles": "CCN(CC)CCCNC(=O)c1ccc2c(c1)sc1nc(-c3ccccc3Cl)cn12", "note": "[compound 124, 2-(2-ehlorophenyl)-N-(3-(diethylamino)propyl)benzo [d]imidazo[2,1-b]thiazole-7-carboxamide]", "Myc Efficacy (−LogEC50)": "++ (++ ≥5 and <6)"},
      {"smiles": "NCc1ccc(-c2cn3c(n2)sc2cc(C(=O)NCCCN4CCCCC4)ccc23)cc1C(F)F", "note": "[compound 379, 2-(4-(aminomethyl)-3-(difluoromethyl)phenyl)-N-(3-(piperidin-1-yl)propyl)benzo[d]imidazo [2,1-b]thiazole-7-carboxamide]", "Myc Efficacy (−LogEC50)": "+++ (+++ ≥6)"},
      {"smiles": "CNC(=O)c1ccc(-c2cn3c(n2)sc2cc(C(=O)NCCC(=O)N4CCCCC4)ccc23)cc1", "note": "[compound 191, 2-(4-(methylcarbamoyl)phenyl)-N-(3-oxo-3-(piperidin-1-yl)propyl)benzo[d]imidazo [2,1-b]thiazole-7-carboxamide]", "Myc Efficacy (−LogEC50)": "+ (+ >3 and <5)"},
      {"smiles": "CNC(=O)c1ccc(-c2cn3c(n2)sc2cc(C(=O)N[C@H]4CCNC4)ccc23)cc1", "note": "[compound 222, (S)-2-(4-(methylcarbamoyl)phenyl)-N-(pyrrolidin-3-yl)benzo[d]imidazo[2,1-b]thiazole-7-carboxamide]", "Myc Efficacy (−LogEC50)": "+ (+ >3 and <5)"},
      {"smiles": "CNC(=O)c1ccc2c(c1)sc1nc(-c3ccc([C@@H]4C[C@H](O)CN4)cc3F)cn12", "note": "[compound 521, 2-(2-fluoro-4-((2S,4S)-4-hydroxypyrrolidin-2-yl)phenyl)-N-methylbenzo[d]imidazo[2,1-b]thiazole-7-carboxamide]", "Myc Efficacy (−LogEC50)": "+++ (+++ ≥6)"},
      {"smiles": "O=C(NCCCN1CCC(F)CC1)c1ccc2c(c1)sc1nc(-c3ccc(C4(O)CCNC4)cc3F)cn12", "note": "(stereo not drawn) [Compound 516, 2-(2-fluoro-4-(3-hydroxypyrrolidin-3-yl)phenyl)-N-(3-(4-fluoropiperidin-1-yl)propyl)benzo[d]imidazo[2,1-b]thiazole-7-carboxamide]", "Myc Efficacy (−LogEC50)": "+++ (+++ ≥6)"},
      {"smiles": "O=C(NCCCN1CCC(F)CC1)c1ccc2c(c1)sc1nc(-c3cc4c(cc3F)CCNC4)cn12", "note": "[Compound 600, 2-(6-fluoro-1,2,3,4-tetrahydroisoquinolin-7-yl)-N-(3-(4-fluoropiperidin-1-yl)propyl)benzo[d]imidazo[2,1-b]thiazole-7-carboxamide dihydrochloride]", "Myc Efficacy (−LogEC50)": "+++ (+++ ≥6)"},
      {"smiles": "CCN(CC)CCCNC(=O)c1ccc2c(c1)sc1nc(-c3ccc(OC)cc3)cn12", "note": "[compound 142, N-(3-(diethylamino)propyl)-2-(4-methoxyphenyl)benzo[d] imidazo[2,1-b]thiazole-7-carboxamide]", "Myc Efficacy (−LogEC50)": "++ (++ ≥5 and <6)"}
    ]}
  ]
}
